The target in one test is T1, rat EP1 receptor (Rattus norvegicus, UniProt P70597).
T1 construct: expressed in transfected cells; host or cells: COS-1 cells, transient transfection with Lipofectamine 2000
T1 sequence (P70597 1-405): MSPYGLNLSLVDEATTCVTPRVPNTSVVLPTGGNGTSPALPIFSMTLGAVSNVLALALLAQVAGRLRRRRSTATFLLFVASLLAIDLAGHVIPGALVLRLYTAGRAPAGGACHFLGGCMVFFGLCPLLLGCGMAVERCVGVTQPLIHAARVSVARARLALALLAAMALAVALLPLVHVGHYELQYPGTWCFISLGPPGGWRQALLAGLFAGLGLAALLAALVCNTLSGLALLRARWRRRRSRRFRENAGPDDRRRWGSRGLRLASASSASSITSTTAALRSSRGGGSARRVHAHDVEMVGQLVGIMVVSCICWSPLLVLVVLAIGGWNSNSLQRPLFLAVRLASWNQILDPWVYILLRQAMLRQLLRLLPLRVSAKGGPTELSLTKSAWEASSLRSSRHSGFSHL
Briefly: Test for confirmation of EP1 receptor antagonism: inhibition of prostaglandin E2-induced increase in intracellular calcium concentration in rat EP1 receptor-expressing COS-1 cells. The format is cell-based. To be noted: prostaglandin E2 10 nM, intracellular calcium fluorescence signal. As for the experimental part: Test for Confirmation of EP1 Receptor Antagonism
(1) Preparation of Rat EP1 Expression Vector
Using Rat Kidney BD Marathon-Ready cDNA (Nippon Becton Dickinson Company, Ltd.) as a template, and using a forward primer shown in (SEQ ID NO:1) and a reverse primer shown in (SEQ ID NO:2), a first run of PCR was carried out using KOD-Plus-Ver 2.0 (Toyobo Co., Ltd.). Further, using this amplification product as a template, and using a forward primer shown in (SEQ ID NO:3) and a reverse primer shown in (SEQ ID NO:4), a second run of PCR was carried out in the same manner. The amplification product obtained by the second run of PCR was incorporated into a vector (pcDNA3.1 D/V5-His-TOPO (registered trademark), Invitrogen Japan K. K.). By a conventional method, the vector containing this amplification product was introduced into E. coli (One Shot TOP10 Competent Cells, Invitrogen Corporation) and transformed. This transformed E. coli was cultured in an LB agar medium for one day. After the culture, colonies were selected and cultured in an LB liquid medium containing 50 μg/mL of ampicillin. After the culture, the vector was purified using a QIAprep Spin Miniprep Kit (Qiagen K. K.). The base sequence of the insertion site of this vector (SEQ ID NO:5) was compared with the rat EP1 base sequence (Ptger1) registered as Accession No. NM_013100 in a publicly-known database (NCBI), and as a result, the base sequences completely matched except for a single base. Further, the amino acid sequence translated by the base sequence completely matched the amino acid sequence of the rat EP1 receptor registered as an NCBI Accession No. NP_037232. Therefore, it was confirmed that the cloned gene sequence was a base sequence of the rat EP1 receptor and the obtained amino acid sequence was that of the rat EP1 receptor. The pcDNA3.1 D/V5-His-TOPO (registered trademark) into which the nucleic acid shown in (SEQ ID NO:5) had been inserted was taken as a rat EP1-expressing vector.
(2) Preparation of Rat EP1 Receptor-Expressing Cells
COS-1 cells (Dainippon Sumitomo Pharma Co., Ltd.) were cultured until they reached confluence in an incubator at 37° C. under a 5% CO2 gas condition, using a D-MEM liquid medium (high glucose and L-glutamine contained, Invitrogen Corporation) to which a penicillin-streptomycin solution (Invitrogen Corporation, final concentration: 100 U/mL as benzylpenicillin; 100 μg/mL as streptomycin) as an antibiotic, MEM nonessential amino acids (Invitrogen Corporation, final concentration: 0.1 mM), and fetal calf serum (Sanko Junyaku Co., Ltd., final concentration: 10%) were added.
(2-2) COS-1 Cell Subculture
The cells that had reached confluence were stripped with 0.05% trypsin/0.53 mM EDTA•4Na (Invitrogen Japan K. K.) and resuspended in the liquid medium. The resuspended cells were diluted and cultured in the liquid medium at a spread ratio from 1:4 to 1:8.
(2-3) Preparation of Cells for Introduction of Rat EP1-Expressing Vector
The cells that had reached confluence were stripped with 0.05% trypsin/0.53 mM EDTA•4Na, and resuspended in a D-MEM liquid medium (high glucose and L-glutamine contained, Invitrogen Corporation) to which MEM nonessential amino acids (final concentration: 0.1 mM) and fetal calf serum (final concentration: 10%) were added. In each well of a Poly D-lysine-coated 96-well microplate (BD BioCoat (registered trademark), Nippon Becton Dickinson Company, Ltd.), this resuspended cell suspension culture was prepared to be 5×10^4 cells/well in 100 μL of the liquid medium, and 100 μL of the cell suspension was dispensed and seeded in each well. After seeding, the cells were cultured in an incubator at 37° C. under a 5% CO2 gas condition. Once the cells for introduction of a rat EP1-expressing vector were adhered (about 2 hours after seeding), introduction of the rat EP1-expressing vector was carried out in the following order.
(2-4) Introduction of Rat EP1-Expressing Vector […]

The subject of a further test is Female SD rats. Briefly: Inhibitory effect of compound on sulprostone-induced bladder contraction. It is filed as in vivo, rat. To be noted: urethane-anesthetized female SD rats, sulprostone 0.3 mg/kg s.c., test agent 1.0 mg/kg intravenously; for Bladder Contraction Inhibition Rate (%) 15 minutes: 15 minutes after administration; for Bladder Contraction Inhibition Rate (%) 60 minutes: 60 minutes after administration. The source says:
Inhibitory Effect of Compound on Sulprostone-Induced Bladder Contraction
Female SD rats were used. Under urethane anesthesia (1.25 g/kg, administered subcutaneously), a tracheal cannula (Size 8, HIBIKI) and a femoral vein cannula for administration (23G needle-equipped PESO) were inserted thereinto. The bladder cannula (PE50) was inserted from the bladder apex. The bladder cannula was connected to a three-way stopcock, and then one port was connected to a pressure transducer and the other port was connected to a syringe filled with saline. Saline was injected into the bladder at an injection rate of 3.6 mL/hour and the bladder contraction pressure was recorded at the time of injection with a recorder (RECTI-HORITZ-8K, NEC Corporation). After 10 minutes from stabilization of the bladder contraction pressure during urination, sulprostone was administered subcutaneously (0.3 mg/kg). Subsequently, once the bladder contraction pressure became constant, a test agent was administered intravenously (1.0 mg/kg). An average bladder contraction pressure during the 10 minute period before administration of sulprostone was used as a baseline (0%). Further, an average bladder contraction pressure during the 10 minute period directly before administration of the test agent was used as a maximum bladder contraction pressure (100%). The average bladder contraction pressures were measured for a 5 minute period before and after 15 minutes and 60 minutes from administration of the test agent. The ratio of this measured value to the maximum bladder contraction pressure was calculated by the following equation and regarded as an average bladder contraction rate after administration of the test agent: (Average Bladder Contraction Rate after Administration of Test Agent (%))=[(Average Bladder Contraction Pressure after Administration of Test Agent)/(Maximum Bladder Contraction Pressure)]×100 EQUATION 1
In addition, the difference between the maximum bladder contraction rate (100%) and the average bladder contraction rate (%) after administration of the test agent was calculated by the following equation and regarded as a bladder contraction inhibition rate of the test agent: (Bladder Contraction Inhibition Rate)=100%−(Average Bladder Contraction Rate after Administration of Test Agent (%)) EQUATION 2

Regarding `COc1ccc2c(c1)cc(-c1ccccc1)n2Cc1cccc(C(=O)NS(C)(=O)=O)n1` [Example 1-1, N-(Methanesulfonyl)-6-(5-methoxy-2-phenylindol-1-ylmethyl)pyridine-2-carboxamide], at rat EP1 receptor, the IC50 is 47 nM. In the test with Female SD rats, the “Bladder Contraction Inhibition Rate (%) 15 minutes” value came out at 67.3% and the “Bladder Contraction Inhibition Rate (%) 60 minutes” value was 75.5%.
The corresponding values for `CCS(=O)(=O)NC(=O)c1cccc(Cn2c(-c3ccccc3)cc3cc(OC)c(Cl)cc32)n1` [Example 1-6, 6-(6-chloro-5-methoxy-2-phenylindol-1-ylmethyl)-N-(ethanesulfonyl)pyridine-2-carboxamide] are 19 nM, 70.0% and 35.8%.
As to `COc1ccc2c(c1)cc(-c1ccccc1)n2Cc1cccc(-c2nnn[nH]2)n1` [Example 2-1, 5-Methoxy-2-phenyl-1-[6-(1H-1,2,3,4-tetrazol-5-yl)pyridin-2-ylmethyl]-1H-indole], at rat EP1 receptor, the IC50 came to 34 nM. Besides, in the test with Female SD rats, the “Bladder Contraction Inhibition Rate (%) 15 minutes” value came out at 73.2% and the “Bladder Contraction Inhibition Rate (%) 60 minutes” value amounted to 78.1%.
The corresponding values for `COc1ccc2c(c1)cc(C1(C)CC1)n2Cc1cccc(-c2nnn[nH]2)n1` [Example 5-5, 5-methoxy-2-(1-methylcyclopropyl)-1-[6-(1H-1,2,3,4-tetrazol-5-yl)pyridin-2-ylmethyl]-1H-indole] are 24 nM, 85.3% and 55.2%.

A word on the IC50: it is the midpoint of a concentration-inhibition curve.

The values are drawn from US8796247B2, “Indole derivative, and pharmacologically acceptable salt thereof” (Kissei Pharmaceutical Co., Ltd., priority 2011, dated 2014).
